Measured values: patent US20040198828A1, “Combinational use of long-acting and short-acting anti-histamines for ocular allergies” (priority 2003, published 2004)

Test system: eyes of allergic subjects challenged with allergen solution (birch, cat hair, cat dander)
Assay: Conjunctival allergen challenge (CAC), onset of action and duration of action study
Format: in vivo, human
Conditions: for Mean Differences (Active-Placebo), 15 Min Itching, Timepoint 1 / Mean Differences (Active-Placebo), 15 Min Itching, Timepoint 2 / Mean Differences (Active-Placebo), 15 Min Itching, Timepoint 3 / Mean Differences (Active-Placebo), 15 Min Redness, Timepoint 1 / Mean Differences (Active-Placebo), 15 Min Redness, Timepoint 2 / Mean Differences (Active-Placebo), 15 Min Redness, Timepoint 3: challenge 15 min after one drop; for Mean Differences (Active-Placebo), 16 hr Itching, Timepoint 1 / Mean Differences (Active-Placebo), 16 hr Itching, Timepoint 2 / Mean Differences (Active-Placebo), 16 hr Itching, Timepoint 3 / Mean Differences (Active-Placebo), 16 hr Redness, Timepoint 1 / Mean Differences (Active-Placebo), 16 hr Redness, Timepoint 2 / Mean Differences (Active-Placebo), 16 hr Redness, Timepoint 3: challenge 16 hr after one drop
Procedure: These following studies were performed using the standard conjunctival allergen challenge model as described in Abelson et al., Arch Ophthalmol. 108(1): 84-88 (1990), and Abelson et al., Curr Allergy Asthma Rep. 3(4): 363-8 (2003). Each experiment was a double-masked, contralateral placebo controlled, single center, onset of action and duration of action allergen challenge study.
A baseline ocular exam was performed to rule out any subjects with any ocular surface anomaly that would interfere with evaluations. A bilateral conjunctival allergen challenge was performed with the allergen to which the subject was known to be allergic to as evidenced by a skin test or previous conjunctival allergen challenge.
Subjects were administered one drop of masked study medication in each eye as described in the below tables (see Table 1-3). A period of at least 1 week was left between experiments on each single subject. At the specified timepoints, subjects were challenged bilaterally with one drop of allergen solution (allergen used were birch, cat hair, cat dander) at a concentration that was known to historically elicit a positive response (Abelson et al., Arch Ophthalmol. 108(1): 84-88 (1990)). Phosphate buffered saline (PBS) was used as placebo. A historic positive response to the challenge was defined as at least a +2.0 itching and +2.0 redness on scales 0-4, with 0 being none and 4 being severe.
Subjects were asked to grade their ocular itching on standardized scales described in Abelson et al., Arch Ophthalmol. 108(1): 84-88 (1990), scoring was performed from a scale of 0-4 at 3, 5, and 7 minutes post-challenge. Redness was graded by a masked observer on standardized scales 0-4 at 10, 15, and 20 minutes post-challenge. Digital photographs were taken of each eye at the 15 minute timepoint. If needed, subjects were administered one drop of a currently marketed topical anti-allergic medication (Naphcon A™: pheniramine maleate 0.3%/naphthazoline hydrochloride 0.025% ophthalmic solution) to relieve any immediate discomfort at the end of the visit.
Data from all subjects who completed any post-challenge examination was evaluable for that experiment and treatment. Mean itching and redness scores were compared between the treated eye and placebo eye to determine an efficacy score.

[1] = itching scale 0-4, timepoint 1 of 3, 5, 7 min post-challenge
[2] = itching scale 0-4, timepoint 2 of 3, 5, 7 min post-challenge
[3] = itching scale 0-4, timepoint 3 of 3, 5, 7 min post-challenge
[4] = redness scale 0-4, timepoint 1 of 10, 15, 20 min post-challenge
[5] = redness scale 0-4, timepoint 2 of 10, 15, 20 min post-challenge
[6] = redness scale 0-4, timepoint 3 of 10, 15, 20 min post-challenge

| Structure (SMILES) | Mean Differences (Active-Placebo), 15 Min Itching, Timepoint 1 [1] | Mean Differences (Active-Placebo), 15 Min Itching, Timepoint 2 [2] | Mean Differences (Active-Placebo), 15 Min Itching, Timepoint 3 [3] | Mean Differences (Active-Placebo), 15 Min Redness, Timepoint 1 [4] | Mean Differences (Active-Placebo), 15 Min Redness, Timepoint 2 [5] | Mean Differences (Active-Placebo), 15 Min Redness, Timepoint 3 [6] | Mean Differences (Active-Placebo), 4 hr Itching, Timepoint 1 (challenge 4 hr after one drop, itching scale 0-4, timepoint 1 of 3, 5, 7 min post-challenge) | Mean Differences (Active-Placebo), 4 hr Itching, Timepoint 2 (challenge 4 hr after one drop, itching scale 0-4, timepoint 2 of 3, 5, 7 min post-challenge) | Mean Differences (Active-Placebo), 4 hr Itching, Timepoint 3 (challenge 4 hr after one drop, itching scale 0-4, timepoint 3 of 3, 5, 7 min post-challenge) | Mean Differences (Active-Placebo), 4 hr Redness, Timepoint 1 (challenge 4 hr after one drop, redness scale 0-4, timepoint 1 of 10, 15, 20 min post-challenge) | Mean Differences (Active-Placebo), 4 hr Redness, Timepoint 2 (challenge 4 hr after one drop, redness scale 0-4, timepoint 2 of 10, 15, 20 min post-challenge) | Mean Differences (Active-Placebo), 4 hr Redness, Timepoint 3 (challenge 4 hr after one drop, redness scale 0-4, timepoint 3 of 10, 15, 20 min post-challenge) | Mean Differences (Active-Placebo), 16 hr Itching, Timepoint 1 [1] | Mean Differences (Active-Placebo), 16 hr Itching, Timepoint 2 [2] | Mean Differences (Active-Placebo), 16 hr Itching, Timepoint 3 [3] | Mean Differences (Active-Placebo), 16 hr Redness, Timepoint 1 [4] | Mean Differences (Active-Placebo), 16 hr Redness, Timepoint 2 [5] | Mean Differences (Active-Placebo), 16 hr Redness, Timepoint 3 [6] |
| --- | --- | --- | --- | --- | --- | --- | --- | --- | --- | --- | --- | --- | --- | --- | --- | --- | --- | --- |
| c1ccc(CN(CC2=NCCN2)c2ccccc2)cc1 [Antazoline 0.5%, antazoline] | −2.33 | −2.83 | −2.5 | −0.83 | −0.83 | −1.00 |  |  |  |  |  |  |  |  |  |  |  |  |
| CN1CCCC(n2nc(Cc3ccc(Cl)cc3)c3ccccc3c2=O)CC1 (stereo not drawn) [Azelastine 0.05%, azelastine] | −2.5 | −2.5 | −2.5 | 0 | 0 | 0 | −0.5 | −1.0 | −1.0 | +0.5 | +1.0 | +1.0 |  |  |  |  |  |  |
| CN1CCC(=C2c3ccccc3CC(=O)c3sccc32)CC1 [Keto 0.05%, ketotifen] | −2.00 | −2.33 | −2.00 | −1.50 | −1.17 | −1.50 |  |  |  |  |  |  | 0.75 | 0.25 | 0.25 | 0.5 | 0.5 | 0.25 |
| CN(C)CCC(c1ccccc1)c1ccccn1 (stereo not drawn) [Pheniramine 0.5%, pheniramine] | −2.67 | −2.33 | −2.17 | −1.67 | −1.83 | −1.67 |  |  |  |  |  |  | −0.25 | 0 | 0 | 0.25 | 0.25 | 0.25 |
